Results taken from paper PMC6835510, “Magnificamide, a β-Defensin-Like Peptide from the Mucus of the Sea Anemone Heteractis magnifica, Is a Strong Inhibitor of Mammalian α-Amylases” (Marine Drugs, 2019).
Bridge positions count the residues as written; N and C are the ends. Ends that are not written are not given here.

How the values were obtained:
[1] = target: human salivary α-amylase (HSA) (Homo sapiens, UniProt P0DUB6); assay: Determination of Ki against human saliva α-amylase (Morrison); assay type: biochemical; settings: 37 °C, 50 mM sodium phosphate, 100 mM NaCl, pH 7.0; CNPG3 3.3 mM (KM 3.4 mM), nominal [E] 100 nM; 10 min pre-incubation; 405 nm; Morrison fit, competitive mode assumed; mean ± SE (n = 3); read-out: Ki against HSA
Sequence of human salivary α-amylase (HSA) (P0DUB6 16-511): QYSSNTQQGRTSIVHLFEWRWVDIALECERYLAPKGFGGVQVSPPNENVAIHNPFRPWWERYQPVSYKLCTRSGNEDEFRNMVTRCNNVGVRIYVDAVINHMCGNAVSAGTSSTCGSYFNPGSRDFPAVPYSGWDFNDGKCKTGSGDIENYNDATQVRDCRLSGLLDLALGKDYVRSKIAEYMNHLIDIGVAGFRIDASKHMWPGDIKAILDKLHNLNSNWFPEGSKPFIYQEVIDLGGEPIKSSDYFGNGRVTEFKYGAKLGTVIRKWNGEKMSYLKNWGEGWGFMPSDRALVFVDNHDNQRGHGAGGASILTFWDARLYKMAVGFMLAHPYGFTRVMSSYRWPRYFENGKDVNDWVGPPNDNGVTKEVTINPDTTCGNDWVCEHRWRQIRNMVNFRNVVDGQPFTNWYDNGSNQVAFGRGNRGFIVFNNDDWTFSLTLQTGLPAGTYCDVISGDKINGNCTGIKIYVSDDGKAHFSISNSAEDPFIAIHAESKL
Experimental: (§1) For a quantitative assessment of tight-binding inhibitor potency, Morrison’s method was applied. This method uses the Morrison quadratic equation (Equation (1)) for fitting inhibitor-response data and determining Ki app as a nonlinear regression parameter. (1) υ/υo=1−([E]+[I]+Kiapp)−([E]+[I]+Kiapp)^2−4[E][I]/2[E]o
(§2) Kinetic assays were carried out at 37 °C in 50 mM sodium phosphate and 100 mM sodium chloride (pH 7.0). 2-Chloro-4-nitrophenyl-α-maltotrioside (CNPG3) (Sigma Aldrich, St. Louis, MO, USA) was used as the substrate and the optical absorption of the 2-chloro-4-nitrophenol was measured at 405 nm. Reactions were run with final [CNPG3] = 1 mM ([S]/KM = 1.41, KM = 0.71 mM), nominal [E] = 20 nM for PPA, [CNPG3] = 3.3 mM ([S]/KM = 0.97, KM = 3.4 mM), and nominal [E] = 100 nM for HSA to provide sufficient analytical signal. Inhibitor dilution schemes were optimized considering recommendations in [34].
(§3) The enzyme was pre-incubated with the inhibitor for 10 minutes before the addition of substrate which launched the reaction. Reactions were monitored on an xMark microplate spectrophotometer (BioRad, USA) in the kinetic mode for 30 min. The initial linear steady state region provided initial rate values for each inhibitor concentration (υ), along with uninhibited rate values (υo). Measurements were run in triplicate. […]

[2] = target: T1, porcine pancreatic α-amylase (PPA) (Sus scrofa, UniProt P00690); assay: Determination of Ki against porcine pancreatic α-amylase (Morrison); assay type: biochemical; settings: 37 °C, 50 mM sodium phosphate, 100 mM NaCl, pH 7.0; CNPG3 1 mM (KM 0.71 mM), nominal [E] 20 nM; 10 min pre-incubation; 405 nm; Morrison fit, competitive mode assumed; mean ± SE (n = 3)
T1 construct: purchased Sigma Aldrich A4268
T1 sequence (P00690 16-511): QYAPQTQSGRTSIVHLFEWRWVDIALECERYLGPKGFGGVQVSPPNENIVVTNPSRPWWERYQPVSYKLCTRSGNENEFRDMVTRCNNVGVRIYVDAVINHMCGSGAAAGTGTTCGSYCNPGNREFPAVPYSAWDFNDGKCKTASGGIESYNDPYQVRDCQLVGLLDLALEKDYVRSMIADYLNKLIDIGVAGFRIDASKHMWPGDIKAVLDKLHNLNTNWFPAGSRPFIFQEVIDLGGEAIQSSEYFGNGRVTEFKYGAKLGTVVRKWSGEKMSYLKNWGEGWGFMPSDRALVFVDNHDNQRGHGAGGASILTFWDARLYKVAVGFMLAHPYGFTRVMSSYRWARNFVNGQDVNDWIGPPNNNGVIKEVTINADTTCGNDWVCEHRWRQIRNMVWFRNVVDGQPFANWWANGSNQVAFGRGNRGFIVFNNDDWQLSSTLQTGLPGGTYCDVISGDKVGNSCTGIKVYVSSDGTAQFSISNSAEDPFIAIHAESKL
Experimental: as §1, §2, §3

SEGTSCYIYHGVYGICKAKCAEDMKAMAGMGVCEGDLCCYKTPW (disulfide 6-38, 16-33, 20-39) [r-magnificamide]
Ki [1]: 7.7 ± 1.5 nM | Ki [2]: 0.17 ± 0.06 nM
